The record followed here is article PMC5814047, “Peptidic inhibitors of insulin-degrading enzyme with potential for dermatological applications discovered via phage display” (PLoS ONE, 2018).

For test [1], the target named is T1, IDE (Homo sapiens, UniProt P14735).
T1 construct: made in house; host or cells: bacteria
T1 sequence (P14735 1-1019): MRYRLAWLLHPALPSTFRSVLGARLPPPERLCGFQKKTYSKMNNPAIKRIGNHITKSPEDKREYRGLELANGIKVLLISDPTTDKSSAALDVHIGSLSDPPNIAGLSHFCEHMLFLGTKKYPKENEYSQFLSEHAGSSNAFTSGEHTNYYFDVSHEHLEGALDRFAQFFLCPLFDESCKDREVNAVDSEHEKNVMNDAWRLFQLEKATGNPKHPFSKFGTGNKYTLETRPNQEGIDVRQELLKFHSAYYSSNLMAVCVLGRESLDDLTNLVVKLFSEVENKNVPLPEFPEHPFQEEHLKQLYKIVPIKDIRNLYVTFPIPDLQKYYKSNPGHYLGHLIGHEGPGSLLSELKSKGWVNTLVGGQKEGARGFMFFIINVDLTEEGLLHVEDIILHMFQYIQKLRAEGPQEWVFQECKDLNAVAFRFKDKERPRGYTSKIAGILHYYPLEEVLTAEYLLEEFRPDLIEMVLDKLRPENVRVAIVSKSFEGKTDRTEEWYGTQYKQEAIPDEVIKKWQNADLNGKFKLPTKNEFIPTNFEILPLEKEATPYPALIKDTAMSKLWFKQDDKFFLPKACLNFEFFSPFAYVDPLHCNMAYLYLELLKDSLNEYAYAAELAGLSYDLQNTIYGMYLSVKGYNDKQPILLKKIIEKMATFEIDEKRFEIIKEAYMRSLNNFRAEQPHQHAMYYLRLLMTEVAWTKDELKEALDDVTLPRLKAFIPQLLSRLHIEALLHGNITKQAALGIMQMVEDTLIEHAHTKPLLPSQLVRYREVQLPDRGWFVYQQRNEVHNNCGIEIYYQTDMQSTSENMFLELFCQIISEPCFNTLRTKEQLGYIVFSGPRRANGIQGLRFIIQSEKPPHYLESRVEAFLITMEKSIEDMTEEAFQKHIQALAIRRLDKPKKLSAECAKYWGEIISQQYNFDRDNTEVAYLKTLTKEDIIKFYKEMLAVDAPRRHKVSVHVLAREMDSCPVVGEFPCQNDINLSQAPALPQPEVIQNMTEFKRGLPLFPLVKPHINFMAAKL
The test is described as follows: biochemical. The following applies: for IC50: FRET1; for IC50 <500 uM?: initial test at 500 uM. An outline of the steps: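 Recombinant human IDE (1 nM, bacterially expressed) degraded FRET1 substrate (5 μM), fluoresceinated biotinylated amyloid β (500 nM) or human insulin (50 nM) in PBS with 0.05% BSA. Peptides tested included N-acetylated and C-amidated variants.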

In test [2] the target is T1, IDE. The test is described as follows: Vulnerability of peptides to degradation by IDE: 0 vs 4 h pre-incubation, then FRET1 assay. The test is classed as biochemical. The following applies: for Ki: Cheng-Prusoff from IC50, FRET1 KM 10 uM, substrate 5 uM; for remaining activity at 0.12207 µM / remaining activity at 0.488281 µM / remaining activity at 1.95312 µM / remaining activity at 7.8125 µM / remaining activity at 31.25 µM / remaining activity at 125 µM / remaining activity at 500 µM: 4 h, relative to DMSO-only controls, read-out: Percent Activity (normalized initial velocity of FRET1 hydrolysis); for remaining activity at 0.12207 µM: Cmpd 0.12207 uM; for remaining activity at 0.488281 µM: Cmpd 0.488281 uM; for remaining activity at 1.95312 µM: Cmpd 1.95312 uM; for remaining activity at 7.8125 µM: Cmpd 7.8125 uM; for remaining activity at 31.25 µM: Cmpd 31.25 uM; for remaining activity at 125 µM: Cmpd 125 uM; for remaining activity at 500 µM: Cmpd 500 uM; for IC50: FRET1 assay. An outline of the steps:
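Recombinant human IDE (1 nM, bacterially purified) degrading FRET1 substrate Mca-peptide-Dnp (5 μM) in PBS with 0.05% BSA; peptides pre-incubated 0 or 4 h before assay. Fluorescence monitored as degradation read-out.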

Setting [3] is: Cheng-Prusoff, KM 10 uM, substrate concentration 5 uM, read-out: Ki values, Mean.
Where [4] appears, read: dose-response, 500 uM, individual runs, read-out: Percent Activity (normalized source data).
Setting [5] is: dose-response, read-out: IC50s, Mean.
The mark [6] stands for this setting: judged as IC50 <100 uM?, individual replicates, read-out: Percent activity at 500 uM, Replicate 1-4.
Setting [7] is: substrate FRET1 5 μM, Ki from IC50 with the Cheng-Prusoff equation, read-out: Ki FRET1.
The mark [8] stands for this setting: 4-hr incubation, individual runs.
The mark [9] stands for this setting: 4-hr incubation, individual replicates, read-out: IC50s.
Where [10] appears, read: 4-hr incubation, mean of 2 replicates, read-out: IC50s, Mean.

“And” between values parts separate entries of the source, which are not always exact repeats. Equal values may be shown once. Ends that are not written are not given here.

For the substance VHWDFRQWWQPS [P12-1], the Ki is 7.71 µM in test [1] (setting [3]), 7.7 ± 0.7 µM in test [1] (setting [7]) and 105 µM in test [2] (4-hr incubation). In addition, the values for the remaining activity at 500 µM in test [1] (setting [4]), in test [1] (setting [6]) and in test [2] (setting [8]) were 0.0455%, 17.6% and 0.247%, respectively. Besides, the IC50 in test [1] (dose-response, individual runs, read-out: IC50s, Run 1-6) was 11.6 µM and 9.84 µM and 13.2 µM; in test [1] (setting [5]), 11.6 µM; in test [2] (setting [9]) it was 154 µM and 160 µM; in test [2] (setting [10]), 157 µM. Also, the “IC50 <500 uM?” value in test [1] is on record as “YES”. For the same substance, the remaining activity at 0.12207 µM in test [2] (setting [8]) was found to be 97.5%. For the same substance, in test [2] (setting [8]), the remaining activity at 0.488281 µM worked out at 104%. In addition, the remaining activity at 1.95312 µM in test [2] (setting [8]) is 99%. For the same substance, the remaining activity at 7.8125 µM in test [2] (setting [8]) is 73.2%. Besides, the remaining activity at 31.25 µM in test [2] (setting [8]) amounted to 42.7%. For the same substance, the remaining activity at 125 µM in test [2] (setting [8]) came out at 10%.

For VHWDFRQWWQPS-NH2 [P12-1A], the Ki in test [1] (setting [3]) was 5.3 µM; in test [1] (setting [7]) it was 5 ± 0.3 µM; in test [2] (4-hr incubation), 62.2 µM. The remaining activity at 0.488281 µM in test [1] (dose-response, 0.488281 uM, individual runs, read-out: Percent Activity (normalized source data)) came out at 88.4%; in test [2] (setting [8]), 75%. Moreover, the remaining activity at 500 µM came to 1.11% in test [1] (setting [4]) and 21.4% in test [2] (setting [8]). Besides, the IC50 is 7.95 µM in test [1] (setting [5]); 8.43 µM in test [2] (0-hr incubation (immediately after combining enzyme and peptide), individual runs, read-out: IC50s); 96.5 µM and 90.2 µM in test [2] (setting [9]); 93.3 µM in test [2] (setting [10]). The “IC50 <500 uM?” value in test [1] is reported as “YES”. In test [2] (setting [8]), the remaining activity at 0.12207 µM came to 79.1%. For the same substance, the remaining activity at 1.95312 µM in test [2] (setting [8]) was 59.1%. In test [2] (setting [8]), the remaining activity at 7.8125 µM was 50.1%. The remaining activity at 31.25 µM in test [2] (setting [8]) is 33.7%. The remaining activity at 125 µM in test [2] (setting [8]) stood at 12.7%.

As for WSPISGKFFQRF [P12-4], the Ki stood at 3.93 µM in test [1] (setting [3]), 3.9 ± 0.5 µM in test [1] (setting [7]) and 259 µM in test [2] (4-hr incubation). Further, the remaining activity at 31.25 µM came out at 46.9% in test [1] (dose-response, 31.25 uM, individual runs, read-out: Percent Activity (normalized source data)) and 84.9% in test [2] (setting [8]). The IC50 in test [1] (setting [5]) was 5.89 µM; in test [2] (setting [9]), 402 µM and 377 µM; in test [2] (setting [10]), 389 µM. In addition, the “IC50 <500 uM?” value in test [1] was “YES”. Moreover, the remaining activity at 500 µM in test [1] (initial test, percent of initial velocity relative to DMSO-only controls, individual replicates, read-out: Percent activity at 500 uM, Replicate 1-4) was 8.6%; in test [1] (setting [6]), 15.5%; in test [2] (setting [8]) it was 30.5%. Moreover, in test [2] (setting [8]), the remaining activity at 0.12207 µM was 89.9%. The remaining activity at 0.488281 µM in test [2] (setting [8]) came out at 96.1%. Moreover, the remaining activity at 1.95312 µM in test [2] (setting [8]) is 86.6%. Further, in test [2] (setting [8]), the remaining activity at 7.8125 µM was determined as 80.4%. Further, the remaining activity at 125 µM in test [2] (setting [8]) turned out to be 75.6%.

The Ki is the equilibrium dissociation constant of an inhibitor or competing ligand from its target.
